According to US11660324B2, “Copper complexes for treatment of neurodegenerative disorders” (ALS Therapy Development Institute, priority 2019, dated 2023):

Key:
[1] = Pharmacokinetics of CuPTSM compared to CuATSM (plasma and spinal cord) after single oral bolus; format: in vivo; details: single oral bolus 30 mg/kg, SOD1^G93A mice
Description: The SOD1^G93A transgenic mouse model of ALS has been the most widely used animal model since the 1990s. The mouse was genetically engineered to overexpress a mutant form of the human Cu/Zn superoxide dismutase 1 (SOD1) gene harboring an ALS-associated glycine to alanine mutation at amino acid position 93 (G93A). Currently, the clinical strategy for the treatment of ALS with CuATSM is to escalate human dosing until ALS patients show plasma levels equivalent to those seen in mice given 30 mg/kg/day.
To compare the effects of CuPTSM to CuATSM in vivo, a single bolus of 30 mg/kg CuPTSM or 30 mg/kg CuATSM in an oral suspension of 0.5% methylcellulose/0.4% TWEEN-80/0.9% normal saline was administered to SOD1^G93A mice. Absorption half-life, elimination half-life, and Cmax measurements were taken from both plasma and spinal cord samples to measure drug exposure of CuPTSM or CuATSM for up to 6 hr after administration of drug.
Similar measurements were recorded for concentrations of CuPTSM and CuATSM in the spinal cord. […] As with the plasma concentrations, the spinal cord concentrations of CuATSM remained constant, even 6 hr after administration (FIG. 2B).

mice = assay: Tolerability in mice (previous studies); format: in vivo; details: 30 mg/kg
[2] = Pharmacokinetic simulation of repeated dosing, linear kinetics assumed; parameters: species or system mice; details: simulation from single-dose PK parameters
Description: FIG. 3A is a simulation using PK parameters derived from the experiment of FIG. 1A and FIG. 1B, assuming linear pharmacokinetics. Plasma concentrations (ng/mL) in mice receiving 6 mg/kg CuPTSM, 30 mg/kg CuATSM, or 100 mg/kg CuATSM are depicted over time (hours). FIG. 3B is a simulation using PK parameters derived from the experiment of FIG. 1A and FIG. 1B, assuming linear pharmacokinetics. Spinal cord concentrations (ng/mL) in mice receiving 6 mg/kg CuPTSM, 30 mg/kg CuATSM, or 100 mg/kg CuATSM are depicted over time (hours).
Using the data and parameters derived from the above experiments using a single bolus of 6 mg/kg CuPTSM, 30 mg/kg CuATSM, or 100 mg/kg CuATSM, plasma and spinal cord concentrations were recorded on a plot over time (hours) to illustrate pharmacokinetic simulations over time. Linear kinetics were assumed. […] Similar results were obtained when concentrations were measured in spinal cord samples (FIG. 3B).

SOD1^G93A mice [3] = assay: Onset of paresis by neurological scoring; format: in vivo
Description: (§1) To test the efficacy of CuPTSM compared to CuATSM, mice were tested for delays in paresis and overall lifespan. Mice were given 6 mg/kg CuPTSM (n=32), 30 mg/kg CuATSM (n=32), and 100 mg/kg CuATSM (n=32) once a day to assess disease progression, and identify drug-induced changes in SOD1^G93A mice compared to their respective vehicle-only control mice. Neurological scoring to test the onset of paresis for each mouse was performed throughout the study according to the protocol as disclosed in Hatzipetros et al. (2015, J. Visualized Experiments. doi:10.3791/53257), incorporated herein by reference in its entirety. Briefly, mice were scored on a scale of NS 0 (pre-symptomatic) to NS 4 (humane end-point) based on a combination of a tail suspension test, a walking test, and a “righting reflex” test.
(§2) To compare the effects of CuPTSM administered at a much lower dose than CuATSM, mice were administered 6 mg/kg […] and survival and onset of paresis were measured as before.

SOD1^G93A mice [4] = assay: Survival / lifespan; format: in vivo
Description: as §1
Survival for each cohort was also tracked throughout the study.
as §2

male SOD1^G93A mice = assay: Compound muscle action potential (CMAP), sciatic nerve / tibialis anterior; format: in vivo
Description: Compound muscle action potential (CMAP) was measured in mice given CuPTSM, CuATSM, or vehicle. CMAP is an electrophysiological technique that assess functional integrity of motor axons. The sciatic nerve is stimulated using implanted microelectrodes proving small electrical currents, and the response is measured in the innervated tibialis anterior (TA) muscle using an implanted recording electrode. It is known that the CMAP signal is decreased in the case of neuromuscular diseases, like in ALS patients, and recapitulated in the SOD1^G93A mouse model due to motor unit loss. In male SOD1^G93A mice, it has been shown that CMAP changes may happen as early as age day 50 and invariably worse after. In the present study, mice were treated once a day for 14 days with 2, 6, or 12 mg/kg CuPTSM; 10 or 30 mg/kg CuATSM; or vehicle (control). A total of 9 male mice were tested for each condition.
Prior to drug administration and assignment of mice to a cohort, CMAP was recorded for each mouse to establish a baseline measurement. Mice were then randomized into each treatment cohort, and administered the respective compounds and dosages of the cohort via oral gavage daily for two weeks. CMAP data was recorded at the end of the two weeks, and compared to the baseline measurements to calculate percent of baseline to illustrate the efficacy of CuPTSM and CuATSM compared to just vehicle.

## CN=C([S-])N/N=C/C(C)=N/NC([S-])=NC.[Cu+2] [CuPTSM, copper PTSM]
[1]; plasma
  absorption half-life: 0.54 h
  elimination half-life: 2.44 h
  plasma Cmax: 1565 ng/mL
[1]; spinal cord
  Cmax: 7.27 ng/mL
  absorption half-life: 1.0 h
  elimination half-life: 1.9 h
mice
  tolerability in mice: toxic to mice
[2]; 6 mg/kg
  simulated plasma concentration before the next dose: plasma levels returned to 0 ng/mL prior to the next dose
SOD1^G93A mice [3]; 6 mg/kg once a day
  delay of onset of paresis compared to CuATSM 30 and 100 mg/kg groups (each over its respective control): significantly delayed onset of paresis over CuATSM
  onset of paresis compared to control: delaying onset over the control
SOD1^G93A mice [4]; 6 mg/kg once a day
  survival compared to CuATSM 30 and 100 mg/kg groups: markedly improved survival
  survival compared to control: increase in survival over the control counterparts
Male SOD1^G93A mice; 2 mg/kg oral gavage once a day for 14 days
  CMAP change from baseline compared to vehicle: significantly greater change from baseline
Male SOD1^G93A mice; 6 mg/kg oral gavage once a day for 14 days
  CMAP change from baseline compared to vehicle: significantly greater change from baseline
Male SOD1^G93A mice; 12 mg/kg oral gavage once a day for 14 days
  CMAP change from baseline compared to vehicle: significantly greater change from baseline

## CN=C([S-])N/N=C(C)/C(C)=N/NC([S-])=NC.[Cu+2] [CuATSM]
[1]; plasma
  absorption half-life: 0.24 h
  elimination half-life: 13.7 h
  plasma Cmax: 198 ng/mL
[1]; spinal cord
  Cmax: 2 ng/mL
  absorption half-life: 0.65 h
  elimination half-life: 13.8 h
mice
  tolerability in mice: well-tolerated
[2]; 30 mg/kg
  simulated plasma concentration before the next dose: did not return to 0 ng/mL prior the next dose
[2]; 100 mg/kg
  simulated plasma concentration before the next dose: did not return to 0 ng/mL prior the next dose
SOD1^G93A mice [3]; 6 mg/kg once a day
  onset of paresis compared to control: no significant improvement in onset of paresis
SOD1^G93A mice [3]; 30 mg/kg once a day
  onset of paresis compared to control: delaying onset over the control
SOD1^G93A mice [3]; 100 mg/kg once a day
  onset of paresis compared to control: delaying onset over the control
SOD1^G93A mice [4]; 6 mg/kg once a day
  survival compared to control: no significant difference in survival
SOD1^G93A mice [4]; 30 mg/kg once a day
  survival compared to control: increase in survival over the control counterparts
SOD1^G93A mice [4]; 100 mg/kg once a day
  survival compared to control: increase in survival over the control counterparts
Male SOD1^G93A mice; 10 mg/kg oral gavage once a day for 14 days
  CMAP change from baseline compared to vehicle: no significant difference in CMAP measurements
Male SOD1^G93A mice; 30 mg/kg oral gavage once a day for 14 days
  CMAP change from baseline compared to vehicle: no significant difference in CMAP measurements
